Converted amounts (≈) assume the structure as drawn. Values belong to the molecule of their own block, whether it stands above or below them.
Assays:
[1] = tested on: Liver; experiment: Antioxidant activity in rat liver microsomal membranes assessed as inhibition of Fe(2+)/ascorbate-induced lipid peroxidation; assay type: functional, microsomes, microsome
[2] = tested on: C32; experiment: Cytotoxicity against human C32 cells; assay type: functional, cell-based
[3] = tested on: MCF7; experiment: Cytotoxicity against human MCF7 cells; assay type: functional, cell-based
[4] = tested on: MDA-MB-231; experiment: Cytotoxicity against human MDA-MB-231 cells; assay type: functional, cell-based
[5] = tested on: Escherichia coli; experiment: Antibacterial activity against Escherichia coli; assay type: functional
[6] = biological target: Intercellular adhesion molecule 1 (Homo sapiens, UniProt P05362); experiment: Inhibition of ICAM1 (unknown origin)
Sequence of Intercellular adhesion molecule 1 (P05362 whole entry): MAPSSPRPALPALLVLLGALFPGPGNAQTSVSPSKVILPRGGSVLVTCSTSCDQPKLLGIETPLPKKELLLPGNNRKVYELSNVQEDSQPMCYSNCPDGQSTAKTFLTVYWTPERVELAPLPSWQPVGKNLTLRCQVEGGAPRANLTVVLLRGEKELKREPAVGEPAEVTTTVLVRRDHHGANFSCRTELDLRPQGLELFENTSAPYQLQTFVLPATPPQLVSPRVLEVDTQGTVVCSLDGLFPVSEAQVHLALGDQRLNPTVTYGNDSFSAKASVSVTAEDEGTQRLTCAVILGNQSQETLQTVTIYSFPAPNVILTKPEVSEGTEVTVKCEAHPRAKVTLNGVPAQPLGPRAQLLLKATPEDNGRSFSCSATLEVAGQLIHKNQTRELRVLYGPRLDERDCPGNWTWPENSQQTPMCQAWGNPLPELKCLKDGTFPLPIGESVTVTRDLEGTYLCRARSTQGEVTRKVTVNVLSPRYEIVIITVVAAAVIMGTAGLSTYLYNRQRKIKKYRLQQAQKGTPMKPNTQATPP

[7] = tested on: Bacillus subtilis; experiment: Antibacterial activity against Bacillus subtilis; assay type: functional
[8] = tested on: Staphylococcus aureus; experiment: Antibacterial activity against Staphylococcus aureus; assay type: functional
[9] = tested on: SNB-19; experiment: Cytotoxicity against human SNB19 cells; assay type: functional, cell-based
[10] = tested on: T47D; experiment: Cytotoxicity against human T47D cells; assay type: functional, cell-based

- MIC ([5]; Escherichia coli): 14 mg/L
Structure (SMILES): C[n+]1cc2c(c3ccccc31)Nc1cccc(O)c1S2.[Cl-]

- IC50 [6]: 0.27 to 1.4 µM
Structure (SMILES): CC(=O)NC1CCN(Cc2ccc3c(c2)Nc2nccnc2S3)CC1

- IC50 [6]: 0.42 to 1 µM
Structure (SMILES): O=C(O)C1CCN(Cc2ccc3c(c2)Nc2nccnc2S3)CC1

- IC50 [1]: 107 µM
Structure (SMILES): O=[N+]([O-])c1ccc(N2c3ccncc3Sc3ccncc32)c([N+](=O)[O-])c1

- IC50 [6]: 0.27 to 1.4 µM
Structure (SMILES): NC(=O)C1CCCN(Cc2ccc3c(c2)Nc2nccnc2S3)C1 (stereo not drawn)

- IC50 [6]: 0.42 to 1 µM
Structure (SMILES): O=C(O)c1ccc(C2CCN(Cc3ccc4c(c3)Nc3nccnc3S4)CC2)cc1

- IC50 [6]: 0.27 to 1.4 µM
Structure (SMILES): CC(=O)N1CCN(Cc2ccc3c(c2)Nc2nccnc2S3)CC1

- IC50 [6]: 0.27 to 1.4 µM
Structure (SMILES): c1cnc2c(n1)Nc1cc(CN3CCCCCCC3)ccc1S2

- IC50 [6]: 0.27 to 1.4 µM
Structure (SMILES): CN(C)S(=O)(=O)N1CCN(Cc2ccc3c(c2)Nc2nccnc2S3)CC1

- IC50 [1]: 2 to 3 mg/L
Structure (SMILES): Clc1ccc2c(c1)Sc1cc3ccccc3nc1N2

- IC50 [6]: 0.27 to 1.4 µM
Structure (SMILES): CNS(=O)(=O)NC1CCN(Cc2ccc3c(c2)Nc2nccnc2S3)CC1

- MIC [8]: >=200 ug
Structure (SMILES): Cn1c(=O)c2c(c3ccccc31)Nc1ccccc1S2

- IC50 [6]: 0.27 to 1.4 µM
Structure (SMILES): O=S(=O)(NC1CCN(Cc2ccc3c(c2)Nc2nccnc2S3)CC1)N1CCCCC1

Second part, the molecule before the results:

Structure (SMILES): c1cc2c(cn1)Sc1ccncc1N2CCN1CCCC1
- IC50 [1]: 125 µM

Structure (SMILES): C(#CCN1c2ccncc2Sc2ccncc21)CN1CCCCC1
- IC50 [2]: 24.8 to 29.2 mg/L (≈ 73.7 to 86.8 µM)

Structure (SMILES): CN(C)CCCN1c2ccc(F)cc2Sc2cnc3ccccc3c21
- IC50 [3]: 7.91 mg/L (≈ 22.4 µM)
- IC50 [4]: 7.43 mg/L (≈ 21 µM)

Structure (SMILES): c1ccc2nc3c(cc2c1)Sc1c(ccc2ncccc12)N3
- IC50 [1]: 16 µM

Structure (SMILES): CN1CCCCC1CCN1c2ccncc2Sc2ncccc21 (stereo not drawn)
- IC50 [3]: 28.4 to 32.9 mg/L (≈ 87 to 101 µM)

Structure (SMILES): O=[N+]([O-])c1cnc2c(c1)Sc1cc(Cl)ccc1N2
- inhibition zone (IZ) [5]: 12 mm
- inhibition zone (IZ) [7]: 8 - 12 mm
- inhibition zone (IZ) [8]: 8 - 15 mm

Structure (SMILES): CN(C)CCCOc1ccc2c(c1)Nc1c(c[n+](C)c3ccccc13)S2.[Cl-]
- IC50 [9]: ≤ 3 mg/L
- IC50 [10]: ≤ 3 mg/L
- IC50 [2]: ≤ 3 mg/L
- IC50 [4]: ≤ 3 mg/L

Structure (SMILES): C[n+]1cc2c(c3ccccc31)Nc1cc(OCCN3CCOCC3)ccc1S2.[Cl-]
- IC50 [9]: ≤ 3 mg/L
- IC50 [10]: ≤ 3 mg/L
- IC50 [2]: ≤ 3 mg/L
- IC50 [4]: ≤ 3 mg/L

Structure (SMILES): FC(F)(F)c1cccc2c1Sc1cnc3ccccc3c1N2
- IC50 [9]: 10 mg/L (≈ 31.4 µM)
- IC50 [3]: 9.76 mg/L (≈ 30.7 µM)

Structure (SMILES): c1ccc2c(c1)Nc1nc3ccccc3cc1S2
- IC50 [1]: 2 to 3 mg/L

Structure (SMILES): CN(C)CCCN1c2ccncc2Sc2ncccc21
- IC50 [2]: 6.3 mg/L (≈ 22 µM)
- IC50 [3]: 11.3 mg/L (≈ 39.5 µM)

Structure (SMILES): COc1ccc2c(c1)Sc1cc3ccccc3nc1N2
- IC50 [1]: 2 to 3 mg/L

Structure (SMILES): C[n+]1cc2c(c3ccccc31)Nc1c(O)cc(-c3ccccc3)cc1S2.[Cl-]
- IC50 [9]: 0.7 to 11.5 mg/L
- IC50 [2]: 0.5 to 7.5 mg/L
- IC50 [4]: 0.5 to 12 mg/L

Structure (SMILES): NC(=O)C1CCN(Cc2ccc3c(c2)Nc2nccnc2S3)CC1
- IC50 [6]: 0.27 to 1.4 µM

Structure (SMILES): COc1ccc2c(c1)Nc1c(c[n+](C)c3ccccc13)S2.[Cl-]
- IC50 [9]: 0.7 to 11.5 mg/L
- IC50 [2]: 0.5 to 7.5 mg/L
- IC50 [4]: 0.5 to 12 mg/L

Structure (SMILES): CN1c2ccncc2Sc2ncccc21
- IC50 [3]: 28.4 to 32.9 mg/L (≈ 132 to 153 µM)

Structure (SMILES): COc1ccc2c(c1)Sc1c[n+](C)c3ccccc3c1N2.[Cl-]
- IC50 [9]: 0.7 to 11.5 mg/L
- IC50 [2]: 0.5 to 7.5 mg/L
- IC50 [4]: 0.5 to 12 mg/L

Structure (SMILES): C#CCN1c2ccncc2Sc2ncccc21
- IC50 [3]: 28.4 to 32.9 mg/L (≈ 119 to 137 µM)

Structure (SMILES): C/C(=C\CC1CCN(Cc2ccc3c(c2)Nc2nccnc2S3)CC1)C(=O)O
- IC50 [6]: 0.42 µM

Structure (SMILES): CSc1ccc2c(c1)Sc1cnc3ccccc3c1N2Cc1ccccc1
- IC50 [3]: 8.71 mg/L (≈ 22.5 µM)
- IC50 [4]: 7.59 mg/L (≈ 19.6 µM)

Structure (SMILES): CCN(C)CC#CCN1c2ccncc2Sc2ccncc21
- IC50 [2]: 24.8 to 29.2 mg/L (≈ 79.9 to 94.1 µM)

Structure (SMILES): c1ccc2nc3c(cc2c1)Sc1c(ccc2ccccc12)N3
- IC50 [1]: 6 mg/L
